# Test results from publication PMC4141155 (2014).
# Values joined by “and” are separate entries in the source; they are usually repeats but may differ in a detail not shown here. Identical values can stand only once.
# Columns and labels:
# [1] = tested on: r[(UUAGGG)4UUA] (RNA, G4) UUAGGGUUAGGGUUAGGGUUAGGGUUA; experiment: ESI-TOF-MS; details: NH4+ 50 mM (ammonium acetate); pH 7.6, 50 % methanol, equimolar 5 or 10 μM; first of two stepwise constants
# [2] = tested on: dAGGG(TTAGGG)3 (DNA, G4) AGGGTTAGGGTTAGGGTTAGGG; experiment: UV melting at 295 nm; details: K+ 100 mM (KCl); 25 mM Tris–HCl pH 7.4; 5 μM DNA, 10 μM ligand; 2.27 °C higher than tetrachloride
# [3] = tested on: d[(TTAGGG)4TTA] (DNA, G4) TTAGGGTTAGGGTTAGGGTTAGGGTTA; experiment: ESI-TOF-MS; details: NH4+ 50 mM (ammonium acetate), pH 7.6, 50 % methanol
# [4] = tested on: d[(TTAGGG)4TTA] (DNA, G4) TTAGGGTTAGGGTTAGGGTTAGGGTTA; experiment: ESI-TOF-MS fraction of bound G-quadruplex; details: NH4+ 50 mM (ammonium acetate); pH 7.6, 50 % methanol; equimolar 10 μM
Compound,K 1 (column head misprinted K 2) [1],binding [2],"K 1 ([3]; equimolar 5 or 10 μM, first of two stepwise constants)",RBA [4],"binding ([3]; tosyl adducts seen in equimolar mixture with TMPyP4 tetratosylate, 10 μM)"
C[n+]1ccc(-c2c3nc(c(-c4cc[n+](C)cc4)c4ccc([nH]4)c(-c4cc[n+](C)cc4)c4nc(c(-c5cc[n+](C)cc5)c5ccc2[nH]5)C=C4)C=C3)cc1,(5.62 ± 0.71) × 10^7 M^−1,yes,(1.87 ± 0.19) × 10^6 M^−1,85.96% and 72.28%,
Cc1ccc(S(=O)(=O)O)cc1,,,,,yes
